Measured values published in the supplement of paper PMC5412046.

Assays:
[1] = system: SB.mhdgc-1; experiment: viability at highest tested concentration (MAXR) relative to DMSO; higher = less cytotoxic; details: SB.mhdgc-1 (hereditary c.1380delA CDH1 gastric cancer)
Outline: (§1)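 Viability values are normalised to DMSO and given either at the highest concentration or as trapezoidal area under the curve. The assay used 500 hereditary or sporadic patient-derived gastric cancer cells in 5 μL medium per 1536 well, dosed by pintool with 23 nL of compound in DMSO at 11 threefold-diluted concentrations. CellTiter-Glo was added 48 h later for 30 min at room temperature, followed by luminescence reading on a ViewLux.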

[2] = system: SB.msgc-1; experiment: as above; details: SB.msgc-1 (sporadic gastric cancer)
Outline: as §1

[3] = system: SB.mhdgc-1; experiment: area under the dose-response curve of % viability (trapezoidal, 11 doses) (% viability x log10 concentration); higher = less cytotoxic; details: SB.mhdgc-1 (hereditary c.1380delA CDH1 gastric cancer)
Outline: as §1

[4] = system: SB.msgc-1; experiment: as above; details: SB.msgc-1 (sporadic gastric cancer)
Outline: as §1

In the case of `O=C(Nc1cccnc1)N1CCC(Cc2cccc(Oc3ccc(C(F)(F)F)cn3)c2)CC1` [PF-3845] (top concentration 46.0829 µM), the viability [1] is reported as 43%, the viability [2] is reported as 44.9% and the “area under the dose-response curve” value [3] is reported as 470. The “area under the dose-response curve” value [4] was 534.

With `O=C(CCN1CCN(C(=O)OCc2cc(Cl)cc(Cl)c2)CC1)c1ccc2[nH]c(=O)oc2c1` [PF-8380] (top concentration 46.0829 µM) the viability [1] was 74.2%, the viability [2] was 89.4% and the “area under the dose-response curve” value [3] was 517. For the same compound, the “area under the dose-response curve” value [4] was 578.

With `CN1CCN(c2cc(C(=O)Nc3ccc4c(c3)-c3c(c(C(N)=O)nn3-c3ccc(F)cc3)CC4)c(Cl)cn2)CC1` [PHA-408] (top concentration 46.0829 µM) the viability [1] was 2.85%, the viability [2] was 18% and the “area under the dose-response curve” value [3] was 441. For the same compound, the “area under the dose-response curve” value [4] was 443.

With `CCCCCCCCCCCCc1ccc([S+](=O)([O-])Nc2nncs2)cc1` [PHT-427] (top concentration 46.0829 µM) the viability [1] was 78.6%, the viability [2] was 96.5% and the “area under the dose-response curve” value [3] was 512. The “area under the dose-response curve” value [4] was 502.

`Oc1cccc(-c2nc(N3CCOCC3)c3oc4ncccc4c3n2)c1` [PI-103] (top concentration 92.1659 µM) was tested, and the viability [1] was 6.8%, the viability [2] was 37.9% and the “area under the dose-response curve” value [3] was 308. The “area under the dose-response curve” value [4] was 457.

For `Cc1ccc([N+](=O)[O-])cc1[S+](=O)([O-])N(C)/N=C/c1cnc2ccc(Br)cn12` [PIK-75] (top concentration 46.0829 µM), the viability [1] was 30%, the viability [2] was 41.7% and the “area under the dose-response curve” value [3] was 348. The “area under the dose-response curve” value [4] was 323.

For `COC1=CC=C2/C3=N/CCN3\C(=N/C2=C1OC)NC(=O)C4=CC=CN=C4` [PIK-90] (top concentration 46.0829 µM), the viability [1] was 27.3%, the viability [2] was 40.5% and the “area under the dose-response curve” value [3] was 415. For the same compound, the “area under the dose-response curve” value [4] was 474.

With `CC(=O)Nc1nc(C)c(-c2ccc(Cl)c([S+](=O)([O-])NCCO)c2)s1` [PIK-93] (top concentration 46.0829 µM) the viability [1] was 19.3%, the viability [2] was 43% and the “area under the dose-response curve” value [3] was 415. The “area under the dose-response curve” value [4] was 400.

With `CC1=C(C=CC=C1)N2\C(=N/C3=C(C(=CC=C3)C)C2=O)C[N]4N=CC5=C4N=CN=C5N` [PIK-293] (top concentration 46.0829 µM) the viability [1] was 55.1%, the viability [2] was 26.6% and the “area under the dose-response curve” value [3] was 377. For the same compound, the “area under the dose-response curve” value [4] was 321.

`CCn1nnc2c(N3CCOCC3)nc(-c3ccc(NC(=O)Nc4ccc(C(=O)N5CCN(C)CC5)cc4)cc3)nc21` [PKI-402] (top concentration 46.0829 µM) was tested, and the viability [1] was 2.9%, the viability [2] was 36.7% and the “area under the dose-response curve” value [3] was 287. For the same compound, the “area under the dose-response curve” value [4] was 405.

With `CCC[S+](=O)([O-])Nc1ccc(F)c(C(=O)c2c[nH]c3ncc(Cl)cc23)c1F` [PLX-4720] (top concentration 46.0829 µM) the viability [1] was 66.8%, the viability [2] was 44.8% and the “area under the dose-response curve” value [3] was 459. The “area under the dose-response curve” value [4] was 521.

For `O=[S+]([O-])(F)Cc1ccccc1` [PMSF] (top concentration 46.0829 µM), the viability [1] was 55.5%, the viability [2] was 93.4% and the “area under the dose-response curve” value [3] was 406. For the same compound, the “area under the dose-response curve” value [4] was 489.

For `Nc1ncnc2c1c(-c1cnc3[nH]ccc3c1)nn2C1CCCC1` [PP-121] (top concentration 46.0829 µM), the viability [1] was 7.09%, the viability [2] was 17.2% and the “area under the dose-response curve” value [3] was 361. For the same compound, the “area under the dose-response curve” value [4] was 431.

With `CC(C)n1nc(-c2cc3cc(O)ccc3[nH]2)c2c(N)ncnc21` [PP-242] (top concentration 46.0829 µM) the viability [1] was 36.9%, the viability [2] was 29.3% and the “area under the dose-response curve” value [3] was 343. The “area under the dose-response curve” value [4] was 430.

In the case of `CCc1ccc(C(=O)Nc2cc(CN3CCN(C)CC3)cc(C(F)(F)F)c2)cc1C#Cc1cnc2ccnn2c1` [PRP003-013] (top concentration 46.0829 µM), the viability [1] is reported as 3.86%, the viability [2] is reported as 0.984% and the “area under the dose-response curve” value [3] is reported as 421. For the same compound, the “area under the dose-response curve” value [4] was 498.

With `O=C(Nc1cc(Cl)cc2c1[nH]c1cnccc12)c1cccnc1` [PS-1145] (top concentration 46.0829 µM) the viability [1] was 36.6%, the viability [2] was 54.8% and the “area under the dose-response curve” value [3] was 442. The “area under the dose-response curve” value [4] was 508.

`O=C(O)c1cccc(-c2noc(-c3ccccc3F)n2)c1` [PTC-124] (top concentration 46.0829 µM) was tested, and the viability [1] was 114%, the viability [2] was 47.4% and the “area under the dose-response curve” value [3] was 614. For the same compound, the “area under the dose-response curve” value [4] was 376.

In the case of `CCC(C)SSc1ncc[nH]1` (configuration not stated) [PX-12] (top concentration 46.0829 µM), the viability [1] is reported as 5.12%, the viability [2] is reported as 4.17% and the “area under the dose-response curve” value [3] is reported as 449. For the same compound, the “area under the dose-response curve” value [4] was 486.

For `CC(=O)O[C@H]1C(=O)[C@]2(C)[C@@H](O)C[C@H]3OC[C@@]3(OC(C)=O)C2[C@H](OC(=O)C4=CC=CC=C4)[C@]5(O)C[C@H](OC(=O)[C@H](O)[C@@H](NC(=O)C6=CC=CC=C6)C7=CC=CC=C7)\C(=C1/C5(C)C)C` (some centres not stated) [Paclitaxel] (top concentration 46.0829 µM), the viability [1] was 44.1%, the viability [2] was 38.5% and the “area under the dose-response curve” value [3] was 297. The “area under the dose-response curve” value [4] was 246.

With `C[C@@]12C[C@@]3(O)O[C@@H](O1)[C@]1(COC(=O)c4ccccc4)[C@H]3C[C@@]12O[C@@H]1O[C@H](CO)[C@@H](O)[C@H](O)[C@H]1O` [Paeoniflorin] (top concentration 46.0829 µM) the viability [1] was 108%, the viability [2] was 114% and the “area under the dose-response curve” value [3] was 500. The “area under the dose-response curve” value [4] was 500.

In the case of `COc1ccc(C(C)=O)c(O)c1` [Paeonol] (top concentration 46.0829 µM), the viability [1] is reported as 57%, the viability [2] is reported as 105% and the “area under the dose-response curve” value [3] is reported as 545. For the same compound, the “area under the dose-response curve” value [4] was 566.

With `CC(=O)O[C@H]1C[C@@H]2CC[C@@H]3[C@H](CC[C@@]4(C)[C@H]3C[C@H]([N+]3(C)CCCCC3)[C@@H]4OC(C)=O)[C@@]2(C)C[C@@H]1[N+]1(C)CCCCC1` [Pancuronium bromide] (top concentration 46.0829 µM) the viability [1] was 71.7%, the viability [2] was 39.2% and the “area under the dose-response curve” value [3] was 588. For the same compound, the “area under the dose-response curve” value [4] was 499.

With `Cc1[nH]c2ccccc2c1CCNCc1ccc(/C=C/C(=O)NO)cc1` [Panobinostat] (top concentration 46.0829 µM) the viability [1] was 22.6%, the viability [2] was 7.03% and the “area under the dose-response curve” value [3] was 339. The “area under the dose-response curve” value [4] was 256.
